Results published in ChEMBL document CHEMBL3132769, “Fragment growing to retain or alter the selectivity of anchored kinase hinge-binding fragments” (Medchemcomm, 2014).

Tests used:
[1] = target: MAP kinase-activated protein kinase 3 (Homo sapiens) (UniProt Q16644); assay: Inhibition of human full length MAPKAPK3 expressed in Escherichia coli cell assessed as substrate phosphorylation using fluorescence-labelled peptides as substrate at 9 uM after 90 mins by microfluidic peptide phosphorylation assay
MAP kinase-activated protein kinase 3 (Homo sapiens), sequence (Q16644 whole entry, looked up, the tested form may be a part): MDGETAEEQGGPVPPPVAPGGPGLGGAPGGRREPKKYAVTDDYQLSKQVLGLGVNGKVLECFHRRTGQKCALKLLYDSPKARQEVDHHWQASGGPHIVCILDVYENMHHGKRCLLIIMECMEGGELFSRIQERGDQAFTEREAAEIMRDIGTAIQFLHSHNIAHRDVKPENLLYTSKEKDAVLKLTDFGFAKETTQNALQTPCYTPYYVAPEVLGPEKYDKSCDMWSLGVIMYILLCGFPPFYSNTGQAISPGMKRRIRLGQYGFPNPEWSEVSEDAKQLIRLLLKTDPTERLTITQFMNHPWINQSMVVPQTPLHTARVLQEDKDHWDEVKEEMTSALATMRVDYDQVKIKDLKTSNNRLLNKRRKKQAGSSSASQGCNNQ

[2] = target: RAC-alpha serine/threonine-protein kinase (Homo sapiens) (UniProt P31749); assay: Inhibition of human AKT1 catalytic domain expressed in baculovirus assessed as substrate phosphorylation using fluorescence-labelled peptides as substrate at 9 uM after 90 mins by microfluidic peptide phosphorylation assay
RAC-alpha serine/threonine-protein kinase (Homo sapiens), sequence (P31749 whole entry, the tested form may be a part): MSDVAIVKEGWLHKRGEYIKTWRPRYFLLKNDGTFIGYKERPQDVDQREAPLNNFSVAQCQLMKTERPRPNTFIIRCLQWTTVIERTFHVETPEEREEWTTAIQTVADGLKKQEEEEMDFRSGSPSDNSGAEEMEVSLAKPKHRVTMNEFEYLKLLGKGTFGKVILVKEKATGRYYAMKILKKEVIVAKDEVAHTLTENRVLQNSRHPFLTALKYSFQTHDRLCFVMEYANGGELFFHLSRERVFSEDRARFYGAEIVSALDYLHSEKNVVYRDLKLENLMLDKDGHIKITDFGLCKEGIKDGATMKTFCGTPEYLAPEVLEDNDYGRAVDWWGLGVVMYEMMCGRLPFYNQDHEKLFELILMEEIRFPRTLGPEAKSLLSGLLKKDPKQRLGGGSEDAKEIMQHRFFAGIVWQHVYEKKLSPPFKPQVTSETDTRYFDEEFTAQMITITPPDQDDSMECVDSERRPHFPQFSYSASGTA

[3] = target: Tyrosine-protein kinase Lck (Homo sapiens) (UniProt P06239); assay: Inhibition of human full length LCK expressed in baculovirus assessed as substrate phosphorylation using fluorescence-labelled peptides as substrate at 95 uM after 90 mins by microfluidic peptide phosphorylation assay
[4] = target: MAP kinase p38 (Homo sapiens) (UniProt O15264+Q15759+Q16539+P53778); assay: Inhibition of human full length p38 beta2 expressed in Escherichia coli cell assessed as substrate phosphorylation using fluorescence-labelled peptides as substrate at 0.06 uM after 90 mins by microfluidic peptide phosphorylation assay
MAP kinase p38 (Homo sapiens), sequence (O15264 whole entry, looked up): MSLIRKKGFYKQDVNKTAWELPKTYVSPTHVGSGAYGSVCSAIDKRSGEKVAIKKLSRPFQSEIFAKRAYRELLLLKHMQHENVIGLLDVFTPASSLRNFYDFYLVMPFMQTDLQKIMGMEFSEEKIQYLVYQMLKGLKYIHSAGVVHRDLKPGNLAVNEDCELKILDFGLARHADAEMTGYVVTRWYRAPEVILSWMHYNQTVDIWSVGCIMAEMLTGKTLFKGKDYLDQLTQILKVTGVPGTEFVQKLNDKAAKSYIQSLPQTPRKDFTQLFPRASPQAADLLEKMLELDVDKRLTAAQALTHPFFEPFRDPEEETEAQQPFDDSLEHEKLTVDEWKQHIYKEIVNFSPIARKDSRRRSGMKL
MAP kinase p38 (Homo sapiens), sequence (P53778 whole entry, looked up): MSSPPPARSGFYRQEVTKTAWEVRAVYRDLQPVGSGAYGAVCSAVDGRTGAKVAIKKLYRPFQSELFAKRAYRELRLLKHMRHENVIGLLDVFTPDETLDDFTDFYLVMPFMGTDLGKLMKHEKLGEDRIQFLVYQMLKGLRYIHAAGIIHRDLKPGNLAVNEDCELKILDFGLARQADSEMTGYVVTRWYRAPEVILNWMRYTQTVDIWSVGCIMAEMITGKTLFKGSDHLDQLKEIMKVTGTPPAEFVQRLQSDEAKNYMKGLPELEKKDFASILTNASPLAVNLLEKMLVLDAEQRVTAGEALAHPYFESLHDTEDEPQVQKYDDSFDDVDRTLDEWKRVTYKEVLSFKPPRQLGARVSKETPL
MAP kinase p38 (Homo sapiens), sequence (Q15759 whole entry, looked up): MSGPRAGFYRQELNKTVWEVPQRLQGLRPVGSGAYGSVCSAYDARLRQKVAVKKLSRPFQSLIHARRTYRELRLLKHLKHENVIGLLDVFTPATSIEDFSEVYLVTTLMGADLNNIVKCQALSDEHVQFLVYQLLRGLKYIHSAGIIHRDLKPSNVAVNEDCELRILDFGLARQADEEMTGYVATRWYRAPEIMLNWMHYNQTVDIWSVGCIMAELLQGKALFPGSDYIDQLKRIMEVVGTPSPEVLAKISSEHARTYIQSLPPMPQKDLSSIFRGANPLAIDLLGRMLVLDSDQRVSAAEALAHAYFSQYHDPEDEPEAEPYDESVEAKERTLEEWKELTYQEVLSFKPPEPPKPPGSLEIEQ
MAP kinase p38 (Homo sapiens), sequence (Q16539 whole entry, looked up): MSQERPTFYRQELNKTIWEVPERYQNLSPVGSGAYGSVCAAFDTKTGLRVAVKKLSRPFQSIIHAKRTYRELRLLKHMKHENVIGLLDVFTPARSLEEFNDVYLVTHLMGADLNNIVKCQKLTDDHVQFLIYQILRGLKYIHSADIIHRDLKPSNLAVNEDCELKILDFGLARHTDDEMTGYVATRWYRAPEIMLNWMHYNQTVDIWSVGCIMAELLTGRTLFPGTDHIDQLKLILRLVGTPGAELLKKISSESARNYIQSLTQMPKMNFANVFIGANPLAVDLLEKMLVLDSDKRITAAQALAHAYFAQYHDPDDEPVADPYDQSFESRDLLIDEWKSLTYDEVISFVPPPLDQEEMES

[5] = target: T1, Calcium/calmodulin-dependent protein kinase type IV (Homo sapiens) (UniProt Q16566); assay: Inhibition of human full length CAMK4 expressed in baculovirus assessed as substrate phosphorylation using fluorescence-labelled peptides as substrate at 0.1 uM after 90 mins by microfluidic peptide phosphorylation assay
T1 sequence (whole entry): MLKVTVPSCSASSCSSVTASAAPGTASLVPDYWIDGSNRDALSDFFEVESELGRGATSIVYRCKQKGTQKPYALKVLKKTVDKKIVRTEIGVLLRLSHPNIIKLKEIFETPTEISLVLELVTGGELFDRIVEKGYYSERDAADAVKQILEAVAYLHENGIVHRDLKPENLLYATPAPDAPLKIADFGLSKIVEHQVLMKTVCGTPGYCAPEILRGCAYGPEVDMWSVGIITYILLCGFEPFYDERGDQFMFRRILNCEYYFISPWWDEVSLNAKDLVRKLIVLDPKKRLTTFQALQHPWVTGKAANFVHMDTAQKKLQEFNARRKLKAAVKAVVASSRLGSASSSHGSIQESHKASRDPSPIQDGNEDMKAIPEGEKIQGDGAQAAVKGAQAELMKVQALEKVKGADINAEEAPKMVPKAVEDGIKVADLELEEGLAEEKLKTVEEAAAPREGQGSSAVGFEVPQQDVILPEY

[6] = target: T2, Aurora kinase C (Homo sapiens) (UniProt Q9UQB9); assay: Inhibition of human full length AurC expressed in baculovirus assessed as substrate phosphorylation using fluorescence-labelled peptides as substrate at 70 uM after 90 mins by microfluidic peptide phosphorylation assay
T2 sequence (whole entry): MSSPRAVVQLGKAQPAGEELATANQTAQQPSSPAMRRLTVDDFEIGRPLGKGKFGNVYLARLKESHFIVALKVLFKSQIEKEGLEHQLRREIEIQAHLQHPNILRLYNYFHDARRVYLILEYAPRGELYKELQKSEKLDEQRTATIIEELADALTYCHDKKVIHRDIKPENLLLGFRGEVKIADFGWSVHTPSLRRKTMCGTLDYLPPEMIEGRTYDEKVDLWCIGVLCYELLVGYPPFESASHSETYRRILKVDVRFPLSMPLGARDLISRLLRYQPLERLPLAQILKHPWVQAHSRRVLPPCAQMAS

[7] = target: Ribosomal protein S6 kinase alpha-1 (Homo sapiens) (UniProt Q15418); assay: Inhibition of human full length RSK1 expressed in baculovirus assessed as substrate phosphorylation using fluorescence-labelled peptides as substrate at 70 uM after 90 mins by microfluidic peptide phosphorylation assay
Ribosomal protein S6 kinase alpha-1 (Homo sapiens), sequence (Q15418 whole entry): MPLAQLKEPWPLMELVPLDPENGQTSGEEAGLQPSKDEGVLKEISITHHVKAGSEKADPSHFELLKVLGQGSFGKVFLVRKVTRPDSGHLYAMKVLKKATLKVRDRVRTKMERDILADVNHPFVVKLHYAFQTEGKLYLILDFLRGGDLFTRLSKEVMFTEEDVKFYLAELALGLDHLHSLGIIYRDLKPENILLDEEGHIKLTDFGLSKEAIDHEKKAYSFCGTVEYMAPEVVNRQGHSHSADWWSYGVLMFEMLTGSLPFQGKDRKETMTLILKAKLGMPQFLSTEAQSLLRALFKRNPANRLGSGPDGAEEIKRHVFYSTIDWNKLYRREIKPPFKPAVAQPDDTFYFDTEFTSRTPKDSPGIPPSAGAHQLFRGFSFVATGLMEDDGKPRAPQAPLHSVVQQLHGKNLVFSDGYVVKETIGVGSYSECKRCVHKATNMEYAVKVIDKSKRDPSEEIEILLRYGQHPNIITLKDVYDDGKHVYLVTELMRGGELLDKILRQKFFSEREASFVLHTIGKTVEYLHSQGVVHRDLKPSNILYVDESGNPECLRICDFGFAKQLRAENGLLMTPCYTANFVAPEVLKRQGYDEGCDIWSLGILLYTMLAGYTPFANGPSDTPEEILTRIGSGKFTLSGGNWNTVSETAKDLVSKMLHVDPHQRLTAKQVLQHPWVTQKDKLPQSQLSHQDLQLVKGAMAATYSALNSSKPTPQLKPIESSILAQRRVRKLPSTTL

[8] = target: Serine/threonine-protein kinase Chk2 (Homo sapiens) (UniProt O96017); assay: Inhibition of human full length CHK2 expressed in baculovirus assessed as substrate phosphorylation using fluorescence-labelled peptides as substrate at 2 uM after 90 mins by microfluidic peptide phosphorylation assay
Serine/threonine-protein kinase Chk2 (Homo sapiens), sequence (O96017 whole entry, the tested form may be a part): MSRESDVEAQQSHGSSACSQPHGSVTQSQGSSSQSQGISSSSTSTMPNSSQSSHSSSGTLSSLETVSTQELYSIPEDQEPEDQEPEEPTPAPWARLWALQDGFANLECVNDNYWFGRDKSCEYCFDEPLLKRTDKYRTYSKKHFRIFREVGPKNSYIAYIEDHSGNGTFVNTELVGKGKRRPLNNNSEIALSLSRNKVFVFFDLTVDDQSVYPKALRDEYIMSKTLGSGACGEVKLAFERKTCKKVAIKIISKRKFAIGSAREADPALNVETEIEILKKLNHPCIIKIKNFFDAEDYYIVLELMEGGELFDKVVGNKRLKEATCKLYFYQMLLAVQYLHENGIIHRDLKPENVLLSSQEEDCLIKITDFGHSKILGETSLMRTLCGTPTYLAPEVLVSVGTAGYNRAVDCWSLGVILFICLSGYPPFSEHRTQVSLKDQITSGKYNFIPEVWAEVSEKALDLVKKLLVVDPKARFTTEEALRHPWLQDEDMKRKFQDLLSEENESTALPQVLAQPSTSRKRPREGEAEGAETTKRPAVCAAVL

[9] = target: Mitogen-activated protein kinase kinase kinase kinase 4 (Homo sapiens) (UniProt O95819); assay: Inhibition of human HGK catalytic domain expressed in baculovirus assessed as substrate phosphorylation using fluorescence-labelled peptides as substrate at 8 uM after 90 mins by microfluidic peptide phosphorylation assay
Mitogen-activated protein kinase kinase kinase kinase 4 (Homo sapiens), sequence (O95819 2-1239 limits assumed): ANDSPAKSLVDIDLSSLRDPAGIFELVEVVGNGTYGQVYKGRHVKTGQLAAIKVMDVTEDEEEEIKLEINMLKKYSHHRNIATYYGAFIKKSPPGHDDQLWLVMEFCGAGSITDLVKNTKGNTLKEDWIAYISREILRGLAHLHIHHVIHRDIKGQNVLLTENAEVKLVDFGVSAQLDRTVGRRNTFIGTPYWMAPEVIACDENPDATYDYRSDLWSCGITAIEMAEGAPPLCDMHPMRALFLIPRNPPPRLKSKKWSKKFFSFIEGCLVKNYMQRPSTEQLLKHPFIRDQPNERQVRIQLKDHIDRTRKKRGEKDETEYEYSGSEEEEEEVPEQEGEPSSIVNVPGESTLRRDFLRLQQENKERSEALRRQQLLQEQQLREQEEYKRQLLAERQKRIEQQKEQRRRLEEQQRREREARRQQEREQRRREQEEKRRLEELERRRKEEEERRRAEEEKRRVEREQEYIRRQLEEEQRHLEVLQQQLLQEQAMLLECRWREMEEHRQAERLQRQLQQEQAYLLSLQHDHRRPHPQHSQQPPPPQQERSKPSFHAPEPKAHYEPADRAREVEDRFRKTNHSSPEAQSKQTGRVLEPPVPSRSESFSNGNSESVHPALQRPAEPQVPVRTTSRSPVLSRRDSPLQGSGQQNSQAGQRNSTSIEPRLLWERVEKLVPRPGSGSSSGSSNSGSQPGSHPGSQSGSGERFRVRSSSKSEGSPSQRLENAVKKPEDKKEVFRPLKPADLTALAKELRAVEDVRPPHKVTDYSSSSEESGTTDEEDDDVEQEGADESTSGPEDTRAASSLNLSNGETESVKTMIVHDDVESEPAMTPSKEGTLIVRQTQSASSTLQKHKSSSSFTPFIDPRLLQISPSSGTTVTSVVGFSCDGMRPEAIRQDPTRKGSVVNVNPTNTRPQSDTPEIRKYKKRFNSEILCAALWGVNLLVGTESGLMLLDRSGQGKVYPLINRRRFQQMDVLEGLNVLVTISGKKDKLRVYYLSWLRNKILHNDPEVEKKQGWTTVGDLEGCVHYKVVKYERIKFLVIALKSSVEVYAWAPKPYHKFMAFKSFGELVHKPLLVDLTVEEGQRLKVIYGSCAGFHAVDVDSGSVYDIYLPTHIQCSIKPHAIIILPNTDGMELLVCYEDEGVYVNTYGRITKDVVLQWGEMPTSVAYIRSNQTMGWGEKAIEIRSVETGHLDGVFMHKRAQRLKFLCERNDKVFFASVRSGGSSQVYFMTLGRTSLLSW

[10] = target: Calcium/calmodulin-dependent protein kinase type II subunit gamma (Homo sapiens) (UniProt Q13555); assay: Inhibition of human CAMK2 gamma catalytic domain expressed in baculovirus assessed as substrate phosphorylation using fluorescence-labelled peptides as substrate at 8 uM after 90 mins by microfluidic peptide phosphorylation assay
[11] = target: Insulin-like growth factor 1 receptor (Homo sapiens) (UniProt P08069); assay: Inhibition of human IGF1R catalytic domain expressed in baculovirus assessed as substrate phosphorylation using fluorescence-labelled peptides as substrate at 8 uM after 90 mins by microfluidic peptide phosphorylation assay
[12] = target: T3, Serine/threonine-protein kinase D3 (Homo sapiens) (UniProt O94806); assay: Inhibition of human full length PKD3 expressed in baculovirus assessed as substrate phosphorylation using fluorescence-labelled peptides as substrate at 1000 uM after 90 mins by microfluidic peptide phosphorylation assay
T3 sequence (whole entry): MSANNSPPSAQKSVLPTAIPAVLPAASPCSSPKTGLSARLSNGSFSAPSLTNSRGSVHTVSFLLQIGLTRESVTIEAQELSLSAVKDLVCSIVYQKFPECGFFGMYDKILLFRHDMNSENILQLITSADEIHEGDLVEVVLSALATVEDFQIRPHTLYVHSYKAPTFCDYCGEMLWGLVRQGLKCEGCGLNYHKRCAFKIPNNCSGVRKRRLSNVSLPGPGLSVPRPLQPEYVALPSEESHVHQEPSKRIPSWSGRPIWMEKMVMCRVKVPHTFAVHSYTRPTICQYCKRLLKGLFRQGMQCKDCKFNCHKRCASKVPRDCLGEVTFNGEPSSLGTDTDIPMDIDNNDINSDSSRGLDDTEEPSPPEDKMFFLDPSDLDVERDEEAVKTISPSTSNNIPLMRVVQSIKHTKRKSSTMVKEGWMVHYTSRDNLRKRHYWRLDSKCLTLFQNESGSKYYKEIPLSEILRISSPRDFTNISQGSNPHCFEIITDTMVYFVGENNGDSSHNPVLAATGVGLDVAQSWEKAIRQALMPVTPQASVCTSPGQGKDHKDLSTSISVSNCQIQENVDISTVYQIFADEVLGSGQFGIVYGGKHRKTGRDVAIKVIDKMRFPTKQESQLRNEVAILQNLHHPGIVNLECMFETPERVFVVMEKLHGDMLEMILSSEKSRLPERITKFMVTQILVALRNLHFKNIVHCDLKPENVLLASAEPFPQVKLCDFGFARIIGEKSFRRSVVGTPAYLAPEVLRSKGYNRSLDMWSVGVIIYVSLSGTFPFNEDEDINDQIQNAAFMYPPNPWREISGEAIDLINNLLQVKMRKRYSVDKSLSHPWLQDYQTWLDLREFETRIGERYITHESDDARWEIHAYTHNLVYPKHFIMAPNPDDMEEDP

NCC1CN(c2ncnc3[nH]c4cnccc4c23)CCO1 (configuration not stated)
inhibition [1]: 74% | inhibition [2]: 52%

NCCc1ccc(-c2ncnc3[nH]cnc23)cc1
inhibition [3]: 68.5%

NC1(Cc2ccc(Cl)cc2)CCN(c2ncnc3[nH]ccc23)CC1
inhibition [4]: 9%

C[C@H](CN(C)C)Oc1nc(Nc2cc3cccc(Cl)c3cn2)cnc1C#N
inhibition [5]: 3.5%

CNCc1ccc(-c2ncnc3[nH]cnc23)cc1
inhibition [6]: 73% | inhibition [7]: 48%

NC1CCN(c2ncnc3[nH]ccc23)CC1
inhibition [8]: 0%

NCC1CCN(c2ncnc3[nH]ccc23)CC1
inhibition [9]: 11.5% | inhibition [10]: 20.5% | inhibition [11]: 30%

c1cnc2[nH]ccc2c1
inhibition [12]: 62.5%
